Measurements taken from patent US10799461B2 (priority 2004, dated 2020).

Assays:
[1] = system: human breast cancer xenografts; assay: Human breast cancer xenograft in nude mice, Paclitaxel minicells (Example 8); type: in vivo; details: 1×10^8 minicells or 400 μg free Paclitaxel, intravenously or intratumorally, days 15, 21, 26, 29 and 33
Experimental: Human breast adenocarcinoma cells (MDA-MB-468, ATCC; human mammary epithelial cells; non-phagocytic) were grown in tissue culture to full confluency in T-75 flasks in RPMI 1640 medium supplemented with 5% Bovine Calf Serum (GIBCO-BRL Life Technologies, Invitrogen Corporation, Carlsbad, Calif., USA) and glutamine (Invitrogen) in a humidified atmosphere of 95% air and 5% CO2 at 37° C. 1×10^6 cells in 50 uL serum-free media together with 50 uL growth factor reduced matrigel (BD Biosciences, Franklin Lakes, N.J., USA) were injected subcutaneously between the shoulder blades of each mouse using a 23-gauge needle. The tumors were measured twice a week using an electronic digital caliper (Mitutoyo, Japan, precision to 0.001) and mean tumor volume was calculated using the formula, length (mm)×width^2 (mm)×0.5=volume (mm^3). 16 days post-implantation, the tumors reached volumes between 50 mm^3 and 80 mm^3, and mice were randomized to seven different groups of 11 per group.
The experiment shown in example 7 was repeated using ^EGFRminicellsPaclitaxel as the experimental treatment. […]

[2] = cited from earlier work
[3] = Reaction at the tail vein injection site in xenograft mice (Example 7); type: in vivo, athymic nude mice
Experimental: The experiment was designed as follows. Group 1 (control) received no treatment. Group 2 (control) received free Doxorubicin (5 μg/gm of mouse body weight) intratumorally. This control was included to determine the effect of free Doxorubicin on tumor cells and to assess toxic side-effects. Group 3 (control) was the same as group 2, except that the Doxorubicin was administered intravenously. Group 4 (control) received the anti-O antigen/anti-EGFR BsAb and free Doxorubicin intravenously to show the effect of BsAb in the absence of minicells. […] Groups 7 and 8 received EGFR-targeted ^EGFRMinicellsDOX intravenously and intratumorally, respectively, to determine if receptor-targeted, drug-packaged minicells could effect tumor stabilization. […] Minicells were administered at a dose of 10^8 and all treatments were given on days 17, 24, 27 and 56 post-xenograft establishment. All measurements were performed by an investigator who was blinded to the treatments administered. Statistical analysis was performed by analysis of variance (ANOVA) and P<0.05 was considered to be statistically significant.

[4] = system: MDA-MB-468 human breast adenocarcinoma cells; assay: Colorimetric cytotoxicity (MTS) assay, minicell-mediated drug delivery; type: cell-based; details: MDA-MB-468 cells, within 6 days after treatment
Experimental: A colorimetric cytotoxicity assay (Promega; CellTiter 96 Aqueous One™) was used. […] MDA-MB 468 cells were seeded at 5×10^6 cells in T75 flasks and incubated for 48 hrs to obtain ˜1×10^7 cells/flask. The media was changed and cells were treated with 10^9 non-targetedminicellsDOX or ^EGFRMinicellsDOX. Free Doxorubicin (50 ng/ml) was also included as a positive control. The cells were incubated for 24 hrs, washed thoroughly with 3 changes of PBS and trypsinized. Viable cells were counted in a haemocytometer using the trypan blue exclusion method. 1×10^4 cells/ml per well were aliqouted into 24-well plates (6 wells per treatment) and incubated for 3, 4, 5, and 6 days with media changes everyday. MTS assay was performed at each time point according to the manufacturers instructions. Briefly, 100 μL of MTS reagent was added to each well and color development was monitored over 2.5 hrs to 4 hrs. 100 μL from each well was transferred to a 96-well plate and the absorbance was read at 490 nm.

For `CC(=O)O[C@H]1C(=O)[C@@]2(C)[C@H]([C@H](OC(=O)c3ccccc3)[C@]3(O)C[C@H](OC(=O)[C@H](O)[C@@H](NC(=O)c4ccccc4)c4ccccc4)C(C)=C1C3(C)C)[C@]1(OC(C)=O)CO[C@@H]1C[C@@H]2O` [free paclitaxel, Paclitaxel], the tumor stabilization/regression [1] was “negligible effect on tumor growth”.

In the case of `CC[C@]1(O)C[C@@H]2CN(CCc3c([nH]c4ccccc34)[C@@](C(=O)OC)(c3cc4c(cc3OC)N(C)[C@H]3[C@@](O)(C(=O)OC)[C@H](OC(C)=O)[C@]5(CC)C=CCN6CC[C@]43[C@@H]65)C2)C1` [Vinblastine], the solubility in water [2] is given as “low solubility in water”.

In the case of `COc1cccc2c1C(=O)c1c(O)c3c(c(O)c1C2=O)C[C@@](O)(C(=O)CO)C[C@@H]3O[C@H]1C[C@H](N)[C@H](O)[C@H](C)O1` [free Doxorubicin, Doxorubicin], the “reaction at the site of injection” value [3] is reported as “severe reaction at the site of the injection” and the cell viability [4] is reported as “about 30%”.
